This note sets out measurements from paper PMC3874807 (Bioorganic & medicinal chemistry letters, 2013).

In this test the target is BpIspF (Burkholderia pseudomallei, UniProt Q3JRA0). Kind of test: biochemical. Format: binding.
BpIspF, sequence (Q3JRA0 whole entry, looked up): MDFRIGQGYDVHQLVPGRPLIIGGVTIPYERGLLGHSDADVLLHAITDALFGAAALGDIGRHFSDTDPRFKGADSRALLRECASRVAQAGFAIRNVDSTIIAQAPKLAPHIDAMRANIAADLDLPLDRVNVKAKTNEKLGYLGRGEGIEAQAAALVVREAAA

In general, Kd refers to the equilibrium constant for the complex coming apart. On to `Oc1ccc(-n2ccnc2)cc1` [FOL955], for which the Kd was over 500 µM.
